Data set [1] deals with human α2β3γ2 receptor (α2-GABAA receptor) (Homo sapiens (Human), UniProt P18507+P47869). In words: Radioligand (3H-flunitrazepam) competition binding assay, BZD site; α2 vs α5 binding selectivity. To be noted: ratio of Ki at α2β3γ2 to Ki at α5β3γ2. The text has this: (§1) α, β and γ subunits are essential for the formation of a complete functional GABAA receptor. In this example, HEK293 cell strains stably expressing human α5-GABAA receptor (comprising α5β3γ2 subunit) and α2-GABAA receptor (comprising α2β3γ2 subunit) were constructed and screened, respectively, by liposome transfection method (Felgner, P. L., et al., Proceedings of the National Academy of Sciences, 1987, 84:7413-7417). The specific subunit protein sequences are as follows: α5 subunit (protein sequence can be found in GenBank accession number: NM_000810.3); α2 subunit (protein sequence can be found in GenBank accession number: NM_000807.4); β3 subunit (protein sequence can be found in GenBank accession number: NM_000814.5); γ2 subunit (protein sequence can be found in GenBank accession number: NM_000816.3).
(§2) The above cell lines were subcultured. Amplification of α5β3γ2-HEK293 and α2β3γ2-HEK293 cells was used to test the affinity of the compounds to benzodiazepine site (BZD) of the GABAA receptor. During the passage of α5β3γ2-HEK293 cells, some of the suspended cells were spread on a glass slide pretreated with Poly-D-Lysine for electrophysiological testing.
(§3) Flunitrazepam is a non-specific reagent that binds to the BZD site efficiently. The affinity of the compounds to the BZD sites of the human α5β3γ2 and α2β3γ2 receptors can be determined by competing the compound with ^3H-flunitrazepam (isotope ^3H-labeled flunitrazepam) for binding to these two receptors.
(§4) Membrane preparation: HEK293 cells stably expressing human α5β3γ2 receptor or α2β3γ2 receptor were collected, suspended in 50 mM Tris-HCl buffer (pH=7.4), homogenized on ice by a homogenizer for 20 seconds 10 times, and centrifuged at 4° C., 1000 g for 10 min. The supernatant was collected, and the above steps were repeated. The supernatant was centrifuged (33800 g; centrifuge purchased from Thermo, rotor model: A27-8×50) at 4° C. for 60 min, and the precipitate was resuspended in Tris buffer (50 mM Tris-HCl, 10 mM MgCl2, 0.5 mM EDTA, 10% glycerol). The precipitate was the cell membrane. Protein content was determined by BCA (Bicinchoninic Acid) method (BCA kit from Pierce (Annoron)). The cell membrane was prepared into 1 ml aliquot and stored at −80° C.
(§5) Radioligand competition binding assay: the assay was carried out in a 200 μL system (96-well plate from Agilent) with 100 μL of cell membrane. The concentration of ^3H-flunitazepam (from PerkinElmer, lot: NET567250 UC) was 1 nM and the concentration of test compound was in the range 1×10^−5-10^−6 M. Flumazenil (from Tocris; lot: 1318) was used as a control. 1 μL of 2 mM flumazenil (final concentration 10 μM) was added to the Low signal control well (Low control, LC) and 1 μL of DMSO (from Sigma aldrich, lot: 472301) was added to the High signal control well (High control, HC). The final target membrane protein concentration was 5 μg/well. All test compound sample stocks were 10 mM DMSO solutions. The working concentration of the samples is to dilute all samples with DMSO to 0.2 mM, and then perform 4-fold continuous gradient dilution for a total of 8 concentration gradients. The 96-well plate was sealed with a plate sealing membrane and then incubated on a shaker at room temperature for 1 hour. Meanwhile, GF/C filter plate was soaked with a plate soaking buffer (0.3% PEI, polyethyleneimine, purchased from Sigma aldrich, model: P314, stored at 4° C.) for at least 0.5 hours. After completion of binding incubation, the cells were collected with a cell collector onto the GF/C filter plate and washed four times with a plate washing buffer (50 mM Tris-HCl, pH 7.4, stored at 4° C.). […]

The target in data set [2] is human α5β3γ2 receptor (α5-GABAA receptor) (Homo sapiens (Human), UniProt P18507+P31644). In words: Radioligand (3H-flunitrazepam) competition binding assay, BZD site. Conditions: 3H-flunitrazepam 1 nM; HEK293 membranes expressing human α5β3γ2.
From the text: as §1, §2, §3, §4, §5

Data set [3] in a line: Stability in simulated gastric fluid (SGF). The format is physicochemical. To be noted: 37° C., 1000 rpm. The procedure:
Simulated gastric fluid (SGF), Manufacturer: Dongguan Chuangfeng Automation Technology Co., Ltd.; Product model: CF-006.
Oscillating constant temperature metal bath, Model: Thermo; Manufacturer: Digital Skaking Drybath.
Temperature: 37° C.; rotating speed: 1000 rpm; sampling time: 0, 4 hours.
Chromatographic column: Welch Xtimate C18 3.0×100 mm, 5 μm. Mobile phase: A: 0.04% trifluoroacetic acid (TFA)/H2O (v/v), B: acetonitrile (ACN). Gradient elution was performed according to the following table, flow rate: 1.0 mL/min; injection volume: 5 μL; column temperature: 35° C.; wavelength: 254 nm.
• (a) preparation of 0.04% TFA/H2O: 400 μL of TFA was measured, placed into 1 L of H2O, and homogenously mixed; • (b) Sample stock solution: about 3 mg of test sample was weighed, and prepared into a stock solution of 10 mmol/L using DMSO; • (c) 50 μL of the sample stock solution was taken, placed into a 5 mL volumetric flask, made up to the scale with the addition of SGF, and homogenously mixed. 400 μL of the solution was taken, four samples in parallel, and shaken at 1000 rpm and 37° C.; • (d) every two samples were taken after 0 and 4 hours respectively, 400 μL of acetonitrile was added, and homogenously mixed, followed by liquid phase injection, and calculation of the change % of the main peak area in the solution after 4 hours relative to 0 hour, two average value reports being taken at each time point.

The target in another data set is α5-GABAA receptor (Homo sapiens (Human), UniProt P18507+P31644). In words: Whole-cell patch clamp electrophysiology, inverse regulation activity in α5β3γ2-HEK293 cells. The format is cell-based. To be noted: compound 100 nM; GABA 0.05-0.06 μM (about EC7-8); clamped at −60 mV; read-out: Inverse regulation efficiency to α5-GABAA receptor.
From the text: α, β and γ subunits are essential for the formation of a complete functional GABAA receptor. […] The specific subunit protein sequences are as follows: α5 subunit (protein sequence can be found in GenBank accession number: NM_000810.3); α2 subunit (protein sequence can be found in GenBank accession number: NM_000807.4); β3 subunit (protein sequence can be found in GenBank accession number: NM_000814.5); γ2 subunit (protein sequence can be found in GenBank accession number: NM_000816.3).
as §2
The inverse regulation activity of the test drugs on α5-GABAA receptor was detected by an electrophysiological method. The specific method was as follows:
Compound concentration setting: the final concentration of the compounds used for compound screening was 100 nM. GABA concentration was 0.05-0.06 μM (about EC7-8). […] The extracellular fluid (ECS) ingredients for electrophysiology were as follows: 150 mM NaCl, 5 mM KCl, 2.5 mM CaCl2, 1 mM MgCl2, 10 mM HEPES and 10 mM glucose (pH 7.4); the electrode internal solution (ICS) formula for electrophysiology was as follows: 140 mM CsCl, 11 mM EGTA, 10 mM HEPES, 2 mM CaCl2, 1 mM MgCl2, 4 mM MgATP, 2 mM TEA (pH 7.3). The above reagents were all purchased from Sigma aldrich. GABA (γ-aminobutyric acid, from sigma aldrich, lot: A5385) powder was prepared into a stock solution with pure water and then diluted in ECS. The compound was first prepared into a 4 mM stock solution with DMSO, and then gradually diluted in corresponding concentrations of GABA-ECS. The solutions were all prepared fresh prior to electrophysiological testing.
Electrophysiological signal acquisition were performed by using EPC 10 amplifier and PatchMaster software (HEKA) or Axon 700 B amplifier and Clampex software (AXON). The recording electrode was made by drawing borosilicate glass (purchased from sutter), and has an electrode resistance of 4˜6 MΩ. Extracellular administration was carried out using ALA-VC-8PG (purchased from ALA, USA) system. A single independently grown cell was selected, and lysis was performed after the glass electrode and the cell forming a good seal, to form a whole cell mode. With the cellular membrane potential clamped at −60 mV, recording was carried out in the Gap-free mode. For the test, extracellular fluid was first applied extracellularly for about 20 seconds. After baseline (Iprebaseline) was stabilized, the extracellular fluid was switched to GABA-ECS. At this time, the current (Igaba) caused by GABA can be detected. At about 20-40 seconds, after the current stabilized, the extracellular fluid was switched to a mixed solution of the compound and GABA-ECS, until the current (Itreatment) caused by both the compound and GABA can be detected. Finally, the solution was switched to the extracellular fluid and the test was terminated after recording for 20-40 seconds.
The experimental results were analyzed using PatchMaster v2x90.1 or PatchMaster v2x90.3 software (EPC 10 amplifier) and Clampex10.6 software (Axon700B amplifier). The current value of each stage was calculated according to the average value of the stabilized current under the corresponding conditions. We defined the control current as Igaba−Iprebaseline, and the current after compound treatment as Itreatment−Iprebaseline. The inverse regulation activity of the compounds is expressed as a percentage and is calculated according to the following formula: Inverse regulation efficiency=[(Itreatment−Igaba)/(Igaba−Iprebaseline)]×100%.
(In general: In patch-clamp work, channel activity is measured electrically.)

Regarding `Cc1ncc(-c2ccc(OCc3c(C)nnn3-c3ccc(C(F)F)cc3)nn2)o1` [WO2020016443A1, Example 6, reference compound], in data set [1], the “Selectivity α2 ki/α5 ki” value is reported as 13.2 folds.
As for `Cc1nnn(-c2ccc(C(F)F)cc2)c1COc1ccc(-n2cnc(C(F)F)c2)nn1` [WO2020016443A1, Example 15, reference compound], the “Selectivity α2 ki/α5 ki” value in data set [1] worked out at 7.67 folds.
In general, Ki refers to a dissociation constant, usually derived from enzyme kinetics or from competition with a known ligand. With `Cc1onc(-c2ccc(F)cc2)c1COc1ccc(N2CCN3CCOC[C@@H]3C2)nn1` [Compound 49, (S)-8-[6-((3-(4-fluorophenyl)-5-methylisoxazol-4-yl)methoxy)pyridazin-3-yl] octahydropyrazino[2,1-c][1,4]oxazine], affinity in data set [2] was put at a Ki of 3.84 nM. Further, the “Residual content in simulated gastric juice after 4 hours (compared with 0 hour content)” value in data set [3] is recorded as 31% (4 hours). For the same molecule, the inhibition at 0.1 µM on α5-GABAA receptor stood at 37%.
As for `Cc1cn2c(n1)CN(c1cnc(OCc3c(-c4ccc(F)cc4)noc3C)cn1)CC2` [Compound 46, 3-(4-fluorophenyl)-5-methyl-4-(((5-(2-methyl-5,6-dihydroimidazo [1,2-a]pyrazin-7(8H)-yl)pyrazin-2-yl)oxy)methyl)isoxazole], in data set [2], the Ki came to 3.09 nM. Moreover, the “Residual content in simulated gastric juice after 4 hours (compared with 0 hour content)” value in data set [3] is 87% (4 hours). Besides, the inhibition at 0.1 µM at α5-GABAA receptor was found to be 21%.
For `Cc1onc(-c2ccc(F)cc2)c1COc1cnc(-c2nnc3n2CCCC3)cn1` [Compound 32, 3-(4-fluorophenyl)-5-methyl-4-(((5-(5,6,7,8-tetrahydro-[1,2,4]triazolo[4,3-a]pyridin-3-yl)pyrazin-2-yl)oxy)methyl)isoxazole], in that order: 4.93 nM, 83% (4 hours) and 35%.
For the molecule `Cc1onc(-c2ccc(F)cc2)c1COc1cnc(-c2cnn3c2CCC3)cn1` [Compound 3], the Ki in data set [2] was found to be 1.66 nM. Moreover, the “Residual content in simulated gastric juice after 4 hours (compared with 0 hour content)” value in data set [3] is on record as 102% (4 hours). Moreover, on α5-GABAA receptor, the inhibition at 0.1 µM was determined as 24%.
In the same order, the values of `Cc1onc(-c2ccc(F)cc2)c1COc1cnc(N2CCn3c(C)nnc3C2)cn1` [Compound 27] are 3.9 nM, 63% (4 hours) and 39%.
In the same order, the values of `Cc1onc(-c2ccc(F)cc2)c1COc1ccc(-n2nnc3c2CCOC3)cn1` [Compound 50, 1-(6-((3-(4-fluorophenyl)-5-methylisoxazol-4-yl)methoxy)pyridin-3-yl)-1,4,6,7-tetrahydropyran[3,4-d][1,2,3]triazole] are 8.63 nM, 82% (4 hours) and 49%.
In turn, `Cc1onc(-c2ccc(F)cc2)c1COc1cnc(-c2cnn3c2COCC3)cn1` [Compound 44, 3-(5-((3-(4-fluorophenyl)-5-methylisoxazol-4-yl)methoxy)pyrazin-2-yl)-6,7-dihydro-4H-pyrazolo[5,1-c][1,4]oxazine] had a Ki in data set [2] of 0.99 nM. Further, the “Residual content in simulated gastric juice after 4 hours (compared with 0 hour content)” value in data set [3] is reported as 94% (4 hours). Further, the inhibition at 0.1 µM at α5-GABAA receptor was 36%.
For `Cc1onc(-c2ccc(F)cc2)c1COc1cnc(N2CCN3CCOC[C@@H]3C2)cn1` [Compound 40, (S)-8-(5-((3-(4-fluorophenyl)-5-methylisoxazol-4-yl)methoxy)pyrazin-2-yl) octahydropyrazino [2,1-c][1,4]oxazine], in that order: 21.8 nM, 98% (4 hours) and 18%.
The molecule `Cc1onc(-c2ccc(F)cc2)c1COc1cnc(-c2nnn3c2COCC3)cn1` [Compound 12, 3-(5-((3-(4-fluorophenyl)-5-methylisoxazol-4-yl)methoxy)pyrazin-2-yl)-6,7-dihydro-4H-[1,2,3]triazolo[5,1-c][1,4]oxazine] yielded a Ki in data set [2] of 2.6 nM. The “Residual content in simulated gastric juice after 4 hours (compared with 0 hour content)” value in data set [3] is 93% (4 hours). In addition, the inhibition at 0.1 µM on α5-GABAA receptor came to 24%.

(Values after US20250215016A1, “ISOXAZOLE-HETEROCYCLIC DERIVATIVE, PHARMACEUTICAL COMPOSITION AND USE” (SHANGHAI SIMR BIOTECHNOLOGY CO., LTD, priority 2022, published 2025).)
